Tests used:
[1] = molecular target: T1, CLIP-tag enzyme (CLIPtag-mGluR2 fusion protein) (Homo sapiens, UniProt P16455, A121V/A127T/A154D/C150Q/C62A/G131N/G132T/G153S/K125A/K32I/L33F/M134L/M60I/N157P/Q115S/Q116H/R128A/R135D/S151G/S152D/S159L/Y114E); assay: Cell model with CLIPtag-mGluR2 and SNAPtag-mGluR2 cotransfection, TR-FRET at 665 nm; assay type: cell-based; conditions: cells incubated with 300 nM of BG-methylbenzamide-Tb(KR); TR-FRET; read-out: half saturation concentration of CLIPtag
T1 construct: The co-expressed SNAPtag-mGluR2 is a separate chain that carries the FRET partner dye
T1 sequence (P16455 1-207 K32I/L33F/M60I/C62A/Y114E/Q115S/Q116H/A121V/K125A/A127T/R128A/G131N/G132T/M134L/R135D/C150Q/S151G/S152D/G153S/A154D/N157P/S159L): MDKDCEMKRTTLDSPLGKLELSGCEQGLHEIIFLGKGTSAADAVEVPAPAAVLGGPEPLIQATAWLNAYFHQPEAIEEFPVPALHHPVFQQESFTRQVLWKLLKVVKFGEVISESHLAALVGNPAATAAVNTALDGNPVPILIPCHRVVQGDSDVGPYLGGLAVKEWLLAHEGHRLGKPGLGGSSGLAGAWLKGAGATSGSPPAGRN
Method: (§1) The cell model used in this example is different from that used in the preceding examples:
(§2) The cells are either cotransfected with a plasmid coding for the fusion protein CLIPtag-mGluR2 and another plasmid coding for the fusion protein SNAPtag-mGluR2, or transfected with a single plasmid coding for the fusion protein SNAPtag-mGluR2.
(§3) Each cell population is incubated in the presence of 300 nM of BG-methylbenzamide-DY647 and increasing concentrations of reference substrates (BC-Tb(KR)) or of a substrate according to the invention (BC-methylbenzamide-Tb(KR)). The fluorescence is measured at 665 nm in TR-FRET mode on a Rubystar machine and the signal measured is representative of a transfer of energy following the dimerization of two monomers of mGluR2 labeled respectively by DY647 and Tb(KR).
(§4) This example is carried out in the same way as example 7 but the cells are incubated in the presence of 300 nM of BG-methylbenzamide-Tb(KR) and increasing concentrations of reference substrate (BC-DY647) or of substrate according to the invention (BC-methylbenzamide-DY647), the formulae of which are below: […]

[2] = molecular target: T2, N-AGT enzyme (AGT-mGluR2 fusion protein) (Homo sapiens, UniProt P16455); assay: Enzymatic reactivity test in a cell model, N-AGT mutant; assay type: cell-based; conditions: for EC50: living cells, N-AGT mutant, labeling 1 h at 37° C., read-out: half saturation concentration of the enzyme
T2 construct: fused on or other part: type 2 metabotropic glutamate receptor (mGluR2)
T2 sequence (P16455 whole entry, looked up, the tested form may be a part): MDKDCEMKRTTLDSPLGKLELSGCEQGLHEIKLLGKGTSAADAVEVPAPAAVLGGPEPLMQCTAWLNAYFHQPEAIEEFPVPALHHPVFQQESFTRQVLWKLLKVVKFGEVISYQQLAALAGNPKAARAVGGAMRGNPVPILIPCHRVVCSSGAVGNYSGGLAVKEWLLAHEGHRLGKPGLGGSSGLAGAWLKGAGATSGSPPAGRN
Method: (§5) This procedure makes it possible to test the reactivity of substrates according to the invention with an AGT expressed by COS 7 cells in the form of a fusion protein with the type 2 glutamate transmembrane receptor (mGluR2).
(§6) Various mutants of AGT were analyzed in this study: SNAP-tag-ST26 or CLIP-tag from Covalys or the N-AGT mutant described by Gronemeyer et al. (Protein Engineering, Design & Selection, Vol. 19, No. 7, pp. 309-316, 2006).
(§7) The transient transfection of the cells is carried out by electroporation using a Biorad electroporator: 10 million cells are transfected by 1 μg SNAP-tag-mGluR2+3 μg pcdna3.1 in a final volume of 300 μl. The electroporation parameters are: 280 V & 1000 μF.
(§8) The cells are then seeded at 150 000 cells per well in Greiner plates (opaque black bottom) previously incubated with polyornithine for 30 minutes at 37° C.
(§9) The cells are cultured in the DMEM+Phenol Red+10% FCS+penicillin/streptomycin+non-essential amino acids medium at 37° C. and 5% CO2. After 24 h of expression, a first washing operation is carried out with 100 μl of this same medium.
(§10) The labeling of the AGT-mGluR2 fusion protein takes place in 100 μl of complete medium with increasing concentrations of BG-fluorophore or BG-L1-A-L2-fluorophore according to the invention for 1 h at 37° C. Before the reading, 4 washing operations are carried out with 100 μl of Tris-Krebs.
(§11) For the substrates bearing fluorophores ATTO647 (example 2), DY647 (examples 1 and 5) and fluorescein-5-EX (example 3), the reading is carried out in 100 μl of Tris-Krebs in direct fluorescence at 682 nm on a Rubystar machine, and at 520 nm for those bearing fluorescein-5-EX (example 3).
(§12) For the substrates bearing the terbium KR complex (examples 4 and 6), the reading is taken in 100 μl of Tris-Krebs in time-resolved fluorescence at 620 nm on a Rubystar machine.
In order to validate the effect of the substrate according to the invention on another mutant of AGT, a characterization of extracellular labeling with the NAGT mutant was carried out.

[3] = molecular target: T3, SNAP-tag-ST26 enzyme (SNAP-tag-mGluR2 fusion protein) (Homo sapiens, UniProt P16455, A127T/C150S/C62A/G131K/G132T/K125A/M134L/N157G/R128A/R135S/S159E); assay: Enzymatic reactivity test in a cell model, SNAP-tag-mGluR2 expressed by COS 7 cells; assay type: cell-based; conditions: living COS 7 cells, labeling 1 h at 37° C., read-out: half saturation concentration of the enzyme
T3 construct: expressed in transfected cells; host or cells: COS 7 cells, transient electroporation
T3 sequence (P16455 1-182 C62A/K125A/A127T/R128A/G131K/G132T/M134L/R135S/C150S/N157G/S159E limits assumed): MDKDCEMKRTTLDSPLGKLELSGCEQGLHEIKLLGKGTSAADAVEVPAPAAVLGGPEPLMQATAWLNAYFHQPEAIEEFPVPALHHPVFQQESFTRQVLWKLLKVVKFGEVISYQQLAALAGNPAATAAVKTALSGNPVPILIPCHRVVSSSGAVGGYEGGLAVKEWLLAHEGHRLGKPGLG
Method: as §5, §6
• SNAP-tag-mGluR2 plasmid, prepared from the pSET-26b plasmid according to the protocol of the commercial kit (SNAP express pSTE7-26b kit, Covalys Biosciences) • Invitrogen pcdna3.1 plasmid. This plasmid is used as a negative control; the cells transfected with this plasmid are denoted “mock” and make it possible to determine the level of non-specific labeling. Protocol:
as §7, §8, §9, §10, §11, §12

[4] = molecular target: T4, SNAP-tag enzyme (GST-SNAP-tag-FKBP fusion protein) (Homo sapiens, UniProt P16455, A127T/C150S/C62A/G131K/G132T/K125A/M134L/N157G/R128A/R135S/S159E); assay: Enzymatic reactivity test in an in vitro model (TR-FRET labeling of GST-SNAPtag-FKBP recombinant protein); assay type: biochemical; conditions: for reactivity of the substrate with the SNAP-tag enzyme: in vitro protein labeling, compared with reference substrate; for percentage of labeling of the SNAP-tag enzyme compared with the reference substrate: after 30 min of incubation, regardless of the concentration of substrate
T4 construct: GST (N)
T4 sequence (P16455 1-182 C62A/K125A/A127T/R128A/G131K/G132T/M134L/R135S/C150S/N157G/S159E limits assumed): T3 sequence (P16455 1-182 C62A/K125A/A127T/R128A/G131K/G132T/M134L/R135S/C150S/N157G/S159E limits assumed)
From the text: The test of reactivity of the substrates according to the invention with the SNAP-tag enzyme is based on an in vitro test of labeling a recombinant protein.
In this case, use is made of the FRB and FKBP proteins that interact in the presence of rapamycin.
The FKBP protein is labeled by a first fluorophore via SNAP-tag technology: for this, a GST-SNAPtag-FKBP fusion protein is produced from the pSET7-26b plasmid according to the protocol of the commercial kit (SNAP express pSET7-26b kit, Covalys Biosciences AG, Witterswil/Switzerland). This fusion protein is then brought into contact with the first fluorophore conjugated to a reference BG derivative or to a BG derivative according to the invention.
The FRB protein is itself coupled via conventional conjugation techniques with a donor fluorescent compound (europium TBP cryptate (KTBP), Cisbio Bioassay) or acceptor fluorescent compound (DY647, Dyomics) depending on the case, following the protocols provided with these products.
The table below explains the nature of the pairs of fluorophores in each of the following examples 1 to 4:
In each example, 2 nmol of FRB recombinant protein labeled with a europium cryptate or DY647 (2nd fluorophore) are co-incubated at ambient temperature with 2 nmol of GST-SNAP-tag-FKBP recombinant protein and increasing concentrations of BG labeled by the first fluorophore (BG-fluorophore of the prior art or BG-L1-A-L2-fluorophore according to the invention).
The fluorescence readings are taken at 620 nm and at 665 nm on a RubyStar machine (BMG laboratory) after an excitation at 337 nm. The readings are carried out before and after induction of the FRB/FKBP protein interaction by 100 nM of rapamycin. This interaction is expressed by the emission of a TR-FRET signal. Since the SNAP-tag enzyme can only attach to a single fluorescent group, the increase in the TR-FRET signal is directly proportional to the percentage of labeled proteins in the reaction medium. This in vitro model makes it possible to establish enzymatic labeling kinetics as a function of the excess of substrate involved in the reaction.
The results are indicated either as d665 or as % labeling according to the following formulae: d 665=(signal at 665 nm with the GST-ST-FKBP protein)−(signal at 665 nm without the GST-ST-FKBP protein).
The percentage of labeling is obtained by comparison with the signal corresponding to the maximum labeling that is obtained after 18 hours of incubation. % labeling=(d665 at t measured/d665 18 h of incubation)×100. Procedure of the Enzymatic Reactivity Test in a Cell Model

[5] = molecular target: T5, CLIP-tag enzyme (CLIPtag-mGluR2 fusion protein) (Homo sapiens, UniProt P16455, K32I/L33F/M60I/C62A/Y114E/Q115S/Q116H/A121V/K125A/A127T/R128A/G131N/G132T/M134L/R135D/C150Q/S151G/S152D/G153S/A154D/N157P/S159L); assay: Cell model with CLIPtag-mGluR2 and SNAPtag-mGluR2 cotransfection, TR-FRET at 665 nm; assay type: cell-based; conditions: cells incubated with 300 nM of BG-methylbenzamide-DY647; TR-FRET 665 nm; read-out: half saturation concentration of CLIPtag
T5 construct: The co-expressed SNAPtag-mGluR2 is a separate chain that carries the FRET partner dye
T5 sequence (P16455 1-207 K32I/L33F/M60I/C62A/Y114E/Q115S/Q116H/A121V/K125A/A127T/R128A/G131N/G132T/M134L/R135D/C150Q/S151G/S152D/G153S/A154D/N157P/S159L): T1 sequence (P16455 1-207 K32I/L33F/M60I/C62A/Y114E/Q115S/Q116H/A121V/K125A/A127T/R128A/G131N/G132T/M134L/R135D/C150Q/S151G/S152D/G153S/A154D/N157P/S159L)
Method: as §1, §2, §3, §4

Molecule: CCN1/C(=C/C=C/C=C/C2=[N+](CC)c3ccc(S(=O)(=O)[O-])cc3C2(C)C)C(C)(CCCC(=O)NCc2ccc(COc3nccc(N)n3)cc2)c2cc(S(=O)(=O)O)ccc21 (centres unmarked) [BC-DY647, benzylcytosine-DY647, reference compound]
- EC50 [1]: 1570 nM

Molecule: CCN1/C(=C/C=C/C=C/C2=[N+](CC)c3ccc(S(=O)(=O)[O-])cc3C2(C)C)C(C)(CCCC(=O)NCc2ccc(COc3nc(N)nc4[nH]cnc34)cc2)c2cc(S(=O)(=O)O)ccc21 (centres unmarked) [BG-DY647, benzylguanine-Dy647, reference compound]
- EC50 [2]: 43 nM
- EC50 [3]: 168 nM

Molecule: Nc1nc(OCc2ccc(CNC(=O)CCSCC(=O)Nc3ccc(-c4c5ccc(=O)cc-5oc5cc(O)ccc45)c(C(=O)O)c3)cc2)c2nc[nH]c2n1 [BG-fluorescein-5-EX, benzylguanine-fluorescein-5-EX, reference compound]
- reactivity of the substrate with the SNAP-tag enzyme [4]: adequate

Molecule: CCN1c2cc3c(cc2C(C)=CC1(C)C)C(c1ccc(C(=O)N(C)CCCC(=O)NCc2ccc(C(=O)NCc4ccc(COc5nc(N)nc6[nH]cnc56)cc4)cc2)cc1)=c1cc2c(cc1O3)=[N+](CC)C(C)(C)C=C2C [BG-methylbenzamide-ATTO647N, ATTO647N-methylbenzamide-BG]
- percentage of labeling of the SNAP-tag enzyme compared with the reference substrate ([4]; in vitro): much better

Molecule: Nc1ccc2cc3ccc(N)cc3[n+](CCCC(=O)NCc3ccc(C(=O)NCc4ccc(COc5cc(N)nc6[nH]cnc56)cc4)cc3)c2c1 [BG-methylbenzamide-Atto465, Atto465-methylbenzamide-BG]
- EC50 [3]: 213 nM

Molecule: CCN1/C(=C/C=C/C=C/C2=[N+](CC)c3ccc(S(=O)(=O)[O-])cc3C2(C)C)C(C)(CCCC(=O)NCc2ccc(C(=O)NCc3ccc(COc4nc(N)nc5[nH]cnc45)cc3)cc2)c2cc(S(=O)(=O)O)ccc21 (centres unmarked) [BG-methylbenzamide-DY647, Dy647-methylbenzamide-BG]
- percentage of labeling of the SNAP-tag enzyme compared with the reference substrate ([4]; in vitro): greatly improved
- half saturation concentration, times lower relative to the reference substrate ([2]; N-AGT enzyme, versus BG-DY647): around 2 times
- EC50 [2]: 22.3 nM
- EC50 [3]: 91.3 nM

Molecule: Nc1nc(OCc2ccc(CNC(=O)c3ccc(CNC(=O)CCSCC(=O)Nc4ccc(-c5c6ccc(=O)cc-6oc6cc(O)ccc56)c(C(=O)O)c4)cc3)cc2)c2nc[nH]c2n1 [BG-methylbenzamide-fluorescein-5-EX, fluorescein-5-EX-benzylamide-BG]
- reactivity of the substrate with the SNAP-tag enzyme [4]: better than that of the reference substrate

Molecule: Atto465-BG [BG-Atto465, reference compound]
- EC50 [3]: 1980 nM

Molecule: DY647-aminomethylnicotinamide-benzylguanine [BG-aminomethylnicotinamide-DY647]
- percentage of labeling of the SNAP-tag enzyme compared with the reference substrate ([4]; in vitro): much better

Molecule: DY647-cis-cyclohexane-benzylguanine [BG-cis-cyclohexane-DY647]
- percentage of enzyme labeled compared with the reference substrate ([4]; in vitro, after 1 h of incubation, regardless of the substrate concentration): much better

Molecule: Tb(KR)-aminomethylnicotinamide-benzylguanine [BG-aminomethylnicotinamide-Tb(KR)]
- reactivity of the substrate with the SNAP-tag enzyme [4]: Results similar to those obtained with the compounds of the preceding examples

Molecule: Tb(KR)-methylbenzamide-BC [BC-methylbenzamide-Tb(KR)]
- EC50 [5]: 131 nM

Molecule: Tb(KR)-methylbenzamide-BG [BG-methylbenzamide-Tb(KR)]
- reactivity of the substrate with the SNAP-tag enzyme [4]: much better reactivity
- EC50 [3]: 15.4 nM

Molecule: benzylcytosine-Tb(KR) [BC-Tb(KR), reference compound]
- EC50 [5]: 820 nM

Molecule: benzylguanine-Tb(KR) [BG-Tb(KR), reference compound]
- EC50 [3]: 60 nM
